# Values quoted from earlier work, collected in patent US20180193305A1, “CROMOLYN COMPOSITIONS FOR TREATMENT OF CHRONIC COUGH DUE TO IDIOPATHIC PULMONARY FIBROSIS” (Patara Pharma, LLC, priority 2016, published 2018).
# Like-named read-outs stand apart in the source and are kept apart here.
# Details: in vivo
smiles,measurement,setting,value
"O=C(O)c1cc(=O)c2c(OCC(O)COc3cccc4oc(C(=O)O)cc(=O)c34)cccc2o1 [cromolyn sodium, disodium 5,5′-(2-hydroxypropane-1,3-diyl)bis(oxy)bis(4-oxo-4H-chromene-2-carboxylate)]",Oral bioavailability,,~1%
same,Oral bioavailability,listed as cromolyn,about 1%
